Data taken from PMC5392334, “Discovery and characterization of a novel irreversible EGFR mutants selective and potent kinase inhibitor CHMFL-EGFR-26 with a distinct binding mode” (Oncotarget, 2017).

How the values were obtained:
[1] = target: T1, ABL1(F317L)-nonphosphorylated (Homo sapiens, UniProt P00519, F317L); experiment: KinomeScan; type: binding; conditions: read-out: % control
T1 construct: purchased DiscoveRx KINOMEscan

[2] = target: T2, ABL1(M351T)-phosphorylated (Homo sapiens, UniProt P00519, M351T); experiment: KinomeScan; type: binding; conditions: read-out: % control
T2 construct: purchased DiscoveRx KINOMEscan

[3] = target: T3, ABL1(Y253F)-phosphorylated (Homo sapiens, UniProt P00519, Y253F); experiment: KinomeScan; type: binding; conditions: read-out: % control
T3 construct: purchased DiscoveRx KINOMEscan

ABL1-phosphorylated = target: T4, ABL1-phosphorylated (Homo sapiens, UniProt P00519); experiment: KinomeScan; type: binding; conditions: read-out: % control
T4 construct: purchased DiscoveRx KINOMEscan

CIT = target: T5, CIT (Homo sapiens, UniProt O14578); experiment: KinomeScan; type: binding; conditions: read-out: % control
T5 construct: purchased DiscoveRx KINOMEscan

CSF1R = target: T6, CSF1R (Homo sapiens, UniProt P07333); experiment: KinomeScan; type: binding; conditions: read-out: % control
T6 construct: purchased DiscoveRx KINOMEscan

CSF1R-autoinhibited = target: T7, CSF1R-autoinhibited (Homo sapiens, UniProt P07333); experiment: KinomeScan; type: binding; conditions: read-out: % control
T7 construct: purchased DiscoveRx KINOMEscan

CSNK1G2 = target: T8, CSNK1G2 (Homo sapiens, UniProt P78368); experiment: KinomeScan; type: binding; conditions: read-out: % control
T8 construct: purchased DiscoveRx KINOMEscan

EGFR = target: T9, EGFR (Homo sapiens, UniProt P00533); experiment: KinomeScan; type: binding; conditions: read-out: % control
T9 construct: purchased DiscoveRx KINOMEscan

[4] = target: T10, EGFR(L747-E749del, A750P) (Homo sapiens, UniProt P00533, A750P/DEL747-749); experiment: KinomeScan; type: binding; conditions: read-out: % control
T10 construct: purchased DiscoveRx KINOMEscan

EPHA4 = target: T11, EPHA4 (Homo sapiens, UniProt P54764); experiment: KinomeScan; type: binding; conditions: read-out: % control
T11 construct: purchased DiscoveRx KINOMEscan

ERK2 = target: T12, ERK2 (Homo sapiens, UniProt P28482); experiment: KinomeScan; type: binding; conditions: read-out: % control
T12 construct: purchased DiscoveRx KINOMEscan

FGFR3(G697C) = target: T13, FGFR3(G697C) (Homo sapiens, UniProt P22607, G697C); experiment: KinomeScan; type: binding; conditions: read-out: % control
T13 construct: purchased DiscoveRx KINOMEscan

LYN = target: T14, LYN (Homo sapiens, UniProt P07948); experiment: KinomeScan; type: binding; conditions: read-out: % control
T14 construct: purchased DiscoveRx KINOMEscan

MET = target: T15, MET (Homo sapiens, UniProt P08581); experiment: KinomeScan; type: binding; conditions: read-out: % control
T15 construct: purchased DiscoveRx KINOMEscan

MLK1 = target: T16, MLK1 (Homo sapiens, UniProt P80192); experiment: KinomeScan; type: binding; conditions: read-out: % control
T16 construct: purchased DiscoveRx KINOMEscan

MRCKA = target: T17, MRCKA (Homo sapiens, UniProt Q5VT25); experiment: KinomeScan; type: binding; conditions: read-out: % control
T17 construct: purchased DiscoveRx KINOMEscan
T17 sequence (Q5VT25 whole entry): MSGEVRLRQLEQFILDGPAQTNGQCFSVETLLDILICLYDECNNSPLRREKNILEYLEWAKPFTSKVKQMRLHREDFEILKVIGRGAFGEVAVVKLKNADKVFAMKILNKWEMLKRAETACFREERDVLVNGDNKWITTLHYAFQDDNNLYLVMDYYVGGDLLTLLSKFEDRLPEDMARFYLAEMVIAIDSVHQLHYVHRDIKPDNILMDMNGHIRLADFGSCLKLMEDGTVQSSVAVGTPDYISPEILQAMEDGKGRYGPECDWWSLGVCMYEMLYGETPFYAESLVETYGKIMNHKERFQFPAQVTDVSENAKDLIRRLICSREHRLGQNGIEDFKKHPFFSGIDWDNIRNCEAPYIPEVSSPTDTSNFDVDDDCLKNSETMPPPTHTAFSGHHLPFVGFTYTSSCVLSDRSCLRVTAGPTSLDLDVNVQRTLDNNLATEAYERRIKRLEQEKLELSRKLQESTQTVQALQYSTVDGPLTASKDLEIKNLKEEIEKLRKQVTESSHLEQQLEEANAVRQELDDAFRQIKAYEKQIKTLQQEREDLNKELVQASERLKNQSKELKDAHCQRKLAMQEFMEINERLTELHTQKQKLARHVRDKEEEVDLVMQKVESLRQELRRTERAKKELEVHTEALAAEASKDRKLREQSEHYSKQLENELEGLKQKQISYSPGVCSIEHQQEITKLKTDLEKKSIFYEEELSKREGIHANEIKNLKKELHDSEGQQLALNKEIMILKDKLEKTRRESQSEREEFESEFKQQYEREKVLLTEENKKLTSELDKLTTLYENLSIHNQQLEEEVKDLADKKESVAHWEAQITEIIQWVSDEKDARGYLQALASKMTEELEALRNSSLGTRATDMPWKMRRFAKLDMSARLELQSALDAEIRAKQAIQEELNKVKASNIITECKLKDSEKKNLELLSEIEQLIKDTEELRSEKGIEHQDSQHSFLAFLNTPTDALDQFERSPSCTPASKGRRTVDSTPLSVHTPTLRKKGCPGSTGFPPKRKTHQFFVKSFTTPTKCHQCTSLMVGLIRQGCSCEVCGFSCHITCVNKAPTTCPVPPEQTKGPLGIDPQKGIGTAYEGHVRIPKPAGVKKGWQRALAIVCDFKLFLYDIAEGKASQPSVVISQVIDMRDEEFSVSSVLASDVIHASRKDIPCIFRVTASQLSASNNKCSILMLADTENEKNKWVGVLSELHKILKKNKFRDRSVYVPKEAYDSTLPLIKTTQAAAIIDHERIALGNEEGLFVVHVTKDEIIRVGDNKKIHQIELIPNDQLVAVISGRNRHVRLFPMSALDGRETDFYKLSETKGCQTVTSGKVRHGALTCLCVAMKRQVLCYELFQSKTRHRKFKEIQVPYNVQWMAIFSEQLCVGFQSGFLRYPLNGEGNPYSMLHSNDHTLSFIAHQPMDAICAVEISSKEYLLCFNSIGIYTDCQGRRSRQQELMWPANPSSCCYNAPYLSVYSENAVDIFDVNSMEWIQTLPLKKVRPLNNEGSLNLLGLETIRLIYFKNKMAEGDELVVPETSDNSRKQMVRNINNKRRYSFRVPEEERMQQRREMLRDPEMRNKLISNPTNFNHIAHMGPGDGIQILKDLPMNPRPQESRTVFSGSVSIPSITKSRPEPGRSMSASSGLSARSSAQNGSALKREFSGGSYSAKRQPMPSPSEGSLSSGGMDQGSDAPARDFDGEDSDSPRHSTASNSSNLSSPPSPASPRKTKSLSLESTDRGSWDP

NEK5 = target: T18, NEK5 (Homo sapiens, UniProt Q6P3R8); experiment: KinomeScan; type: binding; conditions: read-out: % control
T18 construct: purchased DiscoveRx KINOMEscan

NEK6 = target: T19, NEK6 (Homo sapiens, UniProt Q9HC98); experiment: KinomeScan; type: binding; conditions: read-out: % control
T19 construct: purchased DiscoveRx KINOMEscan

PHKG1 = target: T20, PHKG1 (Homo sapiens, UniProt Q16816); experiment: KinomeScan; type: binding; conditions: read-out: % control
T20 construct: purchased DiscoveRx KINOMEscan

PIK3CA(E545A) = target: T21, PIK3CA(E545A) (Homo sapiens, UniProt P42336, E545A); experiment: KinomeScan; type: binding; conditions: read-out: % control
T21 construct: purchased DiscoveRx KINOMEscan

PIK3CA(H1047Y) = target: T22, PIK3CA(H1047Y) (Homo sapiens, UniProt P42336, H1047Y); experiment: KinomeScan; type: binding; conditions: read-out: % control
T22 construct: purchased DiscoveRx KINOMEscan

PIKFYVE = target: T23, PIKFYVE (Homo sapiens, UniProt Q9Y2I7); experiment: KinomeScan; type: binding; conditions: read-out: % control
T23 construct: purchased DiscoveRx KINOMEscan
T23 sequence (Q9Y2I7 whole entry): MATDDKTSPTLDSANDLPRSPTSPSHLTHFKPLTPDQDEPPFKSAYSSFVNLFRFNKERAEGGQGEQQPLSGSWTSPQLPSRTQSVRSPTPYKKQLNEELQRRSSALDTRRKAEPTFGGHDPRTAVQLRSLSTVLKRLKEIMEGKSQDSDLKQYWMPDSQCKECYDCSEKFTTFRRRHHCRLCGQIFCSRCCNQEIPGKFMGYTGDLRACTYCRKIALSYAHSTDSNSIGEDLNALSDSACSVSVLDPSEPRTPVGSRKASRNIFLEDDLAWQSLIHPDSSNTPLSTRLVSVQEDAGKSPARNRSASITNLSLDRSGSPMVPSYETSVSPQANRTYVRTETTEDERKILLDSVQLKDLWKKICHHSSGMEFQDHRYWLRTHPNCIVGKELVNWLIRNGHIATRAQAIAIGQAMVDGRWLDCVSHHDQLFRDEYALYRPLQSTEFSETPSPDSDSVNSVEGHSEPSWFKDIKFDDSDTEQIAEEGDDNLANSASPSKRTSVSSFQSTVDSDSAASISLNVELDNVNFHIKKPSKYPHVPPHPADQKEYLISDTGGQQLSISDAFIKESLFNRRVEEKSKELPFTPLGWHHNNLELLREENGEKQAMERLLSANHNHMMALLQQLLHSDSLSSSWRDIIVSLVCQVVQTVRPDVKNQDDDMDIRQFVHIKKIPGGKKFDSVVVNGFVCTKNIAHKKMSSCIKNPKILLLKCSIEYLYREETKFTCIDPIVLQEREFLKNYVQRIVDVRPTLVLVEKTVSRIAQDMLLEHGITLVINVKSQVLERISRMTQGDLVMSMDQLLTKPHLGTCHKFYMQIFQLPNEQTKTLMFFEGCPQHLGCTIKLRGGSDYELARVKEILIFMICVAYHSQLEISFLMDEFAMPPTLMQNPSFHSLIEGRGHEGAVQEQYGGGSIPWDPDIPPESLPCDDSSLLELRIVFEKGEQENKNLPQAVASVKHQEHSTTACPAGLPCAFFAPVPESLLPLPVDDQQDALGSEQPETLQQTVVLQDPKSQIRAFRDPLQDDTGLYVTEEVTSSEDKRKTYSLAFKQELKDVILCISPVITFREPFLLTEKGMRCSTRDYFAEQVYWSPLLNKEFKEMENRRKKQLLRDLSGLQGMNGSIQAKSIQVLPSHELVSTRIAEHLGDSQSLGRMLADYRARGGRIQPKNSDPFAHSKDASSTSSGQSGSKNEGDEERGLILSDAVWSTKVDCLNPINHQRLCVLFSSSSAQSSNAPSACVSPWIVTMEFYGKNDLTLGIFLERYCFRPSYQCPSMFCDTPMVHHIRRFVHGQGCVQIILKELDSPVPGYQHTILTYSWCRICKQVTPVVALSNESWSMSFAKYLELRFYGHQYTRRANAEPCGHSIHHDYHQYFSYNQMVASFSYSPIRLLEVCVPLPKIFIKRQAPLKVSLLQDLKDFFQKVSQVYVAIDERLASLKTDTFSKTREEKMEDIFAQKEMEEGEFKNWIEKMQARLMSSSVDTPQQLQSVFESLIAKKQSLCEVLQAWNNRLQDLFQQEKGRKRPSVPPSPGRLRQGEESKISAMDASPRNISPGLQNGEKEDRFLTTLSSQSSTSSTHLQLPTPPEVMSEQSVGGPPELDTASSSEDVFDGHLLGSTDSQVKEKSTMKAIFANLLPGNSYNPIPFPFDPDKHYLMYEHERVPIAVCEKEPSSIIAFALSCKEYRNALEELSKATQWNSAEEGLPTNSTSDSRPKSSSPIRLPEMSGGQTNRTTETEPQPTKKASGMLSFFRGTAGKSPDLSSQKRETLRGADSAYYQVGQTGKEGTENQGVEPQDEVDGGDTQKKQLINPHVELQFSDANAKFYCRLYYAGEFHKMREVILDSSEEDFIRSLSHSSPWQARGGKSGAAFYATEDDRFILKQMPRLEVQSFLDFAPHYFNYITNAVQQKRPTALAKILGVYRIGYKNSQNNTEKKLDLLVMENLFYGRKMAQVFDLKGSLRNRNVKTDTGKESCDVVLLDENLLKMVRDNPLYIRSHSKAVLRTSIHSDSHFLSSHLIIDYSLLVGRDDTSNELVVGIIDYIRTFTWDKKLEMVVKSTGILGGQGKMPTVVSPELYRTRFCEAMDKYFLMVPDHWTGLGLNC

PIM3 = target: T24, PIM3 (Homo sapiens, UniProt Q86V86); experiment: KinomeScan; type: binding; conditions: read-out: % control
T24 construct: purchased DiscoveRx KINOMEscan

PRKCD = target: T25, PRKCD (Homo sapiens, UniProt Q05655); experiment: KinomeScan; type: binding; conditions: read-out: % control
T25 construct: purchased DiscoveRx KINOMEscan

PRKG1 = target: T26, PRKG1 (Homo sapiens, UniProt Q13976); experiment: KinomeScan; type: binding; conditions: read-out: % control
T26 construct: purchased DiscoveRx KINOMEscan

PRP4 = target: T27, PRP4 (Homo sapiens, UniProt Q13523); experiment: KinomeScan; type: binding; conditions: read-out: % control
T27 construct: purchased DiscoveRx KINOMEscan

QSK = target: T28, QSK (Homo sapiens, UniProt Q9Y2K2); experiment: KinomeScan; type: binding; conditions: read-out: % control
T28 construct: purchased DiscoveRx KINOMEscan
T28 sequence (Q9Y2K2 whole entry): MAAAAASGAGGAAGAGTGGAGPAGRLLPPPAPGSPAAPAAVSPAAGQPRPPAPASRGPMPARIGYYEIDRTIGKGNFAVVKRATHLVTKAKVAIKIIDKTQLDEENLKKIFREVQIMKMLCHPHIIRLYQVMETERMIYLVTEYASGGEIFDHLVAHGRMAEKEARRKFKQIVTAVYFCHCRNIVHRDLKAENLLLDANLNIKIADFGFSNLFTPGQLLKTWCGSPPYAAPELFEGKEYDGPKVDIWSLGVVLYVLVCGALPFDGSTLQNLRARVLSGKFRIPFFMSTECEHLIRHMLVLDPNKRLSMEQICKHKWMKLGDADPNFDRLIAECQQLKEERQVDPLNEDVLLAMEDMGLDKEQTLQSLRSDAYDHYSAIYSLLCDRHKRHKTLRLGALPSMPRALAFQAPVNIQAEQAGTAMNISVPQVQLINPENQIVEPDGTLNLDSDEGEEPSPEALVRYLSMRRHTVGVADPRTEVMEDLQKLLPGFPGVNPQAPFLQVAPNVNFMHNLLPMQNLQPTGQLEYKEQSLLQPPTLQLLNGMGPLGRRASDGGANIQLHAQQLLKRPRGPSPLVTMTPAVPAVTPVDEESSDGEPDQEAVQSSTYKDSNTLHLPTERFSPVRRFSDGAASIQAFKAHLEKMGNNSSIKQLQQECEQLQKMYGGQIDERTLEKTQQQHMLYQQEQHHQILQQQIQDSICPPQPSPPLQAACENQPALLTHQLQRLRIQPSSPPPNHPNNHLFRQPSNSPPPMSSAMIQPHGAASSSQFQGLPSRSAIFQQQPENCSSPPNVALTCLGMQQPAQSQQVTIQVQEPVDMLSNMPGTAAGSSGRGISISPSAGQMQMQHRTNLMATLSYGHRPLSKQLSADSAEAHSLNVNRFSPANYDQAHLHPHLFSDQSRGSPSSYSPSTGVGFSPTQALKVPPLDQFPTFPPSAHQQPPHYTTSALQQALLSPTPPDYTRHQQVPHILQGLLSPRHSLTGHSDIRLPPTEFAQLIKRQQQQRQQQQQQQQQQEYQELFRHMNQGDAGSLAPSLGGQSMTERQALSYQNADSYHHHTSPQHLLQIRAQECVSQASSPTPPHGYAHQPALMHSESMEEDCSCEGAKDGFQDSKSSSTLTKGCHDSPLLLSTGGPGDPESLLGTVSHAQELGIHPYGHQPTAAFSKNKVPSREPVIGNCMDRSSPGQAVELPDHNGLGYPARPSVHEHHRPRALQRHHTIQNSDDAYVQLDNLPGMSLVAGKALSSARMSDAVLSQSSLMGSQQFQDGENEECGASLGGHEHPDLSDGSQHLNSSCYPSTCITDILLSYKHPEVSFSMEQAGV

ROCK2 = target: T29, ROCK2 (Homo sapiens, UniProt O75116); experiment: KinomeScan; type: binding; conditions: read-out: % control
T29 construct: purchased DiscoveRx KINOMEscan

ROS1 = target: T30, ROS1 (Homo sapiens, UniProt P08922); experiment: KinomeScan; type: binding; conditions: read-out: % control
T30 construct: purchased DiscoveRx KINOMEscan

[5] = target: T31, RSK2(Kin.Dom.2-C-terminal) (Homo sapiens, UniProt P51812); experiment: KinomeScan; type: binding; conditions: read-out: % control
T31 construct: RSK2(Kin.Dom.2-C-terminal); purchased DiscoveRx KINOMEscan

SGK = target: T32, SGK (Homo sapiens, UniProt O00141); experiment: KinomeScan; type: binding; conditions: read-out: % control
T32 construct: purchased DiscoveRx KINOMEscan

TIE2 = target: T33, TIE2 (Homo sapiens, UniProt Q02763); experiment: KinomeScan; type: binding; conditions: read-out: % control
T33 construct: purchased DiscoveRx KINOMEscan

WNK3 = target: T34, WNK3 (Homo sapiens, UniProt Q9BYP7); experiment: KinomeScan; type: binding; conditions: read-out: % control
T34 construct: purchased DiscoveRx KINOMEscan

YES = target: T35, YES (Homo sapiens, UniProt P07947); experiment: KinomeScan; type: binding; conditions: read-out: % control
T35 construct: purchased DiscoveRx KINOMEscan

YSK1 = target: T36, YSK1 (Homo sapiens, UniProt O00506); experiment: KinomeScan; type: binding; conditions: read-out: % control
T36 construct: purchased DiscoveRx KINOMEscan

BaF3-TEL-EGFR-C797S = experiment: Anti-proliferation, BaF3 isogenic cell lines (CellTiter-Glo); type: cell-based; conditions: Mus musculus, 72 hours, triplet testing
BaF3-FL-EGFR-del19 = experiment: as above; type: cell-based; conditions: Mus musculus, 72 hours, triplet testing
468 kinases/mutants = experiment: KinomeScan selectivity profile (panel); type: binding; conditions: 1μM
From the text: In order to better understand CHMFL-EGFR-26's selectivity, we then tested it in DiscoveRx's KinomeScan™ assay. […] Given the fact that KinomeScan™ is a binding assay and sometimes cannot truly reflect the compound inhibitory activity, we then used Invitrogen SelectScreen® assay to test these potential off-targets (Supplementary Table 2). […] This was not surprising because EGFR, JAK3, HER2, HER4 and TEC family kinases (BTK, BLK and BMX) all share a similar cysteine residue at the identical position analogous to Cys 797 in EGFR in the hinge binding area.

## C=CC(=O)N1CCC[C@@H](n2nc(-c3ccc(OCc4cccc(C)n4)c(Cl)c3)c3c(N)ncnc32)C1 [CHMFL-EGFR-26]
[1]
  remaining binding at 1 µM: 100%
[2]
  remaining binding at 1 µM: 100%
[3]
  remaining binding at 1 µM: 100%
ABL1-phosphorylated
  remaining binding at 1 µM: 81%
CIT
  remaining binding at 1 µM: 90%
CSF1R
  remaining binding at 1 µM: 98%
CSF1R-autoinhibited
  remaining binding at 1 µM: 100%
CSNK1G2
  remaining binding at 1 µM: 100%
EGFR
  remaining binding at 1 µM: 0.8%
[4]
  remaining binding at 1 µM: 10%
EPHA4
  remaining binding at 1 µM: 100%
ERK2
  remaining binding at 1 µM: 94%
FGFR3(G697C)
  remaining binding at 1 µM: 100%
LYN
  remaining binding at 1 µM: 94%
MET
  remaining binding at 1 µM: 96%
MLK1
  remaining binding at 1 µM: 99%
MRCKA
  remaining binding at 1 µM: 64%
NEK5
  remaining binding at 1 µM: 93%
NEK6
  remaining binding at 1 µM: 100%
PHKG1
  remaining binding at 1 µM: 100%
PIK3CA(E545A)
  remaining binding at 1 µM: 100%
PIK3CA(H1047Y)
  remaining binding at 1 µM: 100%
PIKFYVE
  remaining binding at 1 µM: 75%
PIM3
  remaining binding at 1 µM: 100%
PRKCD
  remaining binding at 1 µM: 100%
PRKG1
  remaining binding at 1 µM: 14%
PRP4
  remaining binding at 1 µM: 78%
QSK
  remaining binding at 1 µM: 71%
ROCK2
  remaining binding at 1 µM: 100%
ROS1
  remaining binding at 1 µM: 89%
[5]
  remaining binding at 1 µM: 100%
SGK
  remaining binding at 1 µM: 100%
TIE2
  remaining binding at 1 µM: 78%
WNK3
  remaining binding at 1 µM: 100%
YES
  remaining binding at 1 µM: 65%
YSK1
  remaining binding at 1 µM: 20%
BaF3-TEL-EGFR-C797S
  GI50: 2.5 µM
BaF3-FL-EGFR-del19
  GI50: 0.013 µM
468 kinases/mutants
  S score (1): 0.02
